# According to paper PMC12384447, “Effect of a Novel Antidepressant and Anticancer Nuc01 on Depression in Cancer Survivors” (Current Issues in Molecular Biology, 2025):
# pIC50: −log10 of the molar value.
# Molecular target: T1, LSD1 (lysine-specific demethylase 1) (Homo sapiens, UniProt O60341)
# T1 construct: gene KDM1A; residues 172–852
# Assay: TR-FRET (LANCE) demethylase assay with biotinylated histone H3K4me1 peptide
# Type: biochemical
compound,measurement,value
CN(C)CC(c1ccc(OC(=O)N(C)CCN(C)C2CC2c2ccccc2)cc1)C1(O)CCCCC1 (stereo not shown) [Nuc01],pIC50,6.28
